# Assay results published in patent US8617542B2, “DispersinB™, 5-fluorouracil, deoxyribonuclease I and proteinase K-based antibiofilm compositions and uses thereof” (Kane Biotech Inc., priority 2008, dated 2013).
# Experiments:
# Assay type in all cases: cell-based
# [1] = test system: cystic fibrosis-associated pathogens; assay: antimicrobial activity (MIC) against all pathogens tested; details: pathogens of Table 1
# Description: (§1) The antimicrobial activity of 5-fluorouracil (FU) was studied by determining minimal inhibitory concentrations (MIC) in a 96 well microtiter plate. Briefly, serial two-fold dilutions of FU were performed in TSB. A suspension of each microorganism from Table 1 was added to wells at a concentration of 5×10^5 CFU/mL, and the microtiter plates were incubated at 37° C. The MIC was defined, as the lowest concentration of an antimicrobial required for total inhibition of a test microorganism at 37° C. 5-Fluorouracil was active against all the pathogens tested (Table 1).
# Pseudomonas aeruginosa = assay: MIC in 96 well microtiter plate, P. aeruginosa; details: TSB, 5×10^5 CFU/mL, 37° C.
# Description: as §1
# Staphylococcus aureus = assay: MIC in 96 well microtiter plate, S. aureus; details: TSB, 5×10^5 CFU/mL, 37° C.
# Description: as §1
# Burkholderia cepacia = assay: MIC in 96 well microtiter plate, B. cepacia; details: TSB, 5×10^5 CFU/mL, 37° C.
# Description: as §1
smiles,measurement,setting,value
"O=c1[nH]cc(F)c(=O)[nH]1 [5-Fluorouracil, 5-fluoro-2,4(1H,3H)-Pyrimidinedione]",antimicrobial activity against all the pathogens tested,[1],active
same,MIC,Pseudomonas aeruginosa,31.2 µg/mL
same,MIC,Staphylococcus aureus,25 µg/mL
same,MIC,Burkholderia cepacia,62.5 µg/mL
